Assay results: patent US20040023910A1, “Use of cyr61 in the treatment and diagnosis of human uterine leiomyomas” (priority 2003, published 2004)

Columns and labels:
[1] = system: Cyr61 transcript levels in myometrial tissue; test: Ex vivo treatment of myometrial explants with sex steroids and growth factors, Cyr61 mRNA by Northern blotting; format: cell-based, human
Source text: (§1) Study subjects and tissue procurement Uterine leiomyomas and matched myometrial specimens were obtained according to protocols approved by the Institutional Review Boards following routine hysterectomy at the Department of Obstetrics and Gynecology, Pennsylvania Hospital. Tissue samples were provided from patients between the ages of 38 to 53 (median age=45) who were not on hormone replacement therapy nor prescribed gonadotropin releasing hormone agonists (n=38). All but one patient had experienced normal menstrual cycles prior to surgery. Tissue specimens were immediately frozen in liquid nitrogen following hysterectomies for total RNA isolation or fixed in 10% neutral-buffered formalin for in situ hybridization. Tissues for ex vivo culturing were placed in phenol-red free DMEM/Ham's F12 media (Gibco BRL, Rockville, Md.) containing 100 U/ml penicillin, […], and 250 ng/ml amphotericine B as a fungizone and transported on ice.
Northern blotting for Cyr61 and ER a Total cellular RNA was isolated from myometrial and leiomyoma tissue homogenates by guanidium isothiocynate lysis followed by phenol/chloroform extraction. Subsequently, total cellular RNA (20 μg) was subjected to electrophoresis in a 1% agarose gel containing 1 M formaldehyde. Separated RNA transcripts were transferred onto nylon membranes by […] and subsequently prehybridized at 60° C. in RapidHyb hybridization solution (Amersham, Arlington Heights, Ill.). A 0.41 kb human Cyr61 cDNA fragment was radiolabeled with [α-^32P]-dCTP (3,000 Ci/mmol) using the random-primer technique (Rediprime II, Amersham) and used as the hybridization probe. The radiolabeled probe (1×10^6 cpm/ml) was hybridized to membranes for 4 h at 60° C. Membranes were washed twice in 1×SSPE (0.15 M NaCl, […], and 0.01 M sodium phosphate, pH 7.4) and 0.1% SDS for 15 min at 25° C., followed by a final wash in 0.1×SSPE and 0.1% SDS for 5 min at 60° C. For estrogen receptor α (ERα) expression, membranes were reprobed with a 1.96 kb human ERα cDNA (1.96 kb full length coding region) that was radiolabeled with [α-^32P]-dCTP (3,000 Ci/mmol), hybridized and washed as described above. Relative levels of Cyr61 were normalized to glyceraldehyde-3-phosphate dehydrogenase (GAPDH) after reprobing membranes with a ^32P-radiolabeled oligonucleotide according to manufacturers protocol (endlabeling kit, GibcoBRL, Rockville, Md.).
Tissue treatment with sex steroids and growth factors Tissue specimens obtained as described above were immediately minced into 1-2 mm pieces using sterilized scalpels and forceps and placed in phenol-red free DMEM/Ham's F12 containing antifingal and antibiotic agents only. […]

[2] = system: Cyr61 in leiomyoma tissues; test: Ex vivo treatment of leiomyoma explants with sex steroids and growth factors, Cyr61 mRNA by Northern blotting; format: cell-based, human; conditions: leiomyoma explants ex vivo (n=8), 10 nM E2 or 10 ng/ml bFGF, 1 h
Source text: as §1
Northern blotting for Cyr61 and ER a Total cellular RNA was isolated from myometrial and leiomyoma tissue homogenates by guanidium isothiocynate lysis followed by phenol/chloroform extraction. Subsequently, total cellular RNA (20 μg) was subjected to electrophoresis in a 1% agarose gel containing 1 M formaldehyde. […]

[3] = system: Cyr61 in murine and human fibroblasts; conditions: Nathans et al. 1988; cited from earlier work

For C[C@]12CC[C@@H]3c4ccc(O)cc4CC[C@H]3[C@@H]1CC[C@@H]2O [E2, 17β-estradiol], the “increase in Cyr61 transcript levels” value ([1]; myometrial explants ex vivo (n=8), 1 h, 10 nM E2, 10 ng/ml bFGF or serum, normalized to GAPDH) was “greater than 2 fold” and the “upregulation of Cyr61 in leiomyoma tissues” value [2] was “neither E2 nor bFGF was able to upregulate Cyr61”.

With C[C@]12CC[C@@H]3c4ccc(O)cc4C[C@@H](CCCCCCCCC[S+]([O-])CCCC(F)(F)C(F)(F)F)[C@H]3[C@@H]1CC[C@@H]2O (stereo partly shown) [ICI 182,780] the “inhibition of E2 mediated induction of Cyr61” value ([1]; myometrial explants ex vivo, combination of 10 nM E2 and 1 μM ICI 182,780, 1 h) was “completely inhibited”.

With CCC(=O)[C@@]1(C)CC[C@H]2[C@@H]3CCC4=CC(=O)CCC4=C3CC[C@@]21C [R5020] the “effect on Cyr61 expression” value ([1]; myometrial explants ex vivo, 10 nM R5020, 1 h) was “no effect on Cyr61 expression” and the “synergy with E2 on Cyr61 expression” value ([1]; myometrial explants ex vivo, combination of 10 nM E2 and 10 nM R5020, 1 h) was “nor did it synergize with E2”.

For “bFGF: basic fibroblast growth factor, purchased from R & D Systems, Inc.”, the “upregulation of Cyr61 in leiomyoma tissues” value [2] is given as “neither E2 nor bFGF was able to upregulate Cyr61” and the “induction of Cyr61” value [3] is given as “induces Cyr61”.
